Activity calls are given as the source filed them.
Assays:
Galanin receptor type 2 = Galanin receptor type 2 (Homo sapiens, UniProt O43603); assay: Dose Response cell-based high-throughput screening assay to identify antagonists of galanin receptor 2 (GALR2). [Related pubchem assays: 828, 866 ]; type: functional
[1] = molecular target: Heat shock protein HSP 90-alpha (Homo sapiens, UniProt P07900); assay: Luminescence-based dose response biochemical high throughput screening assay for inhibitors of the Heat Shock Protein 90 (HSP90). [Related pubchem assays: 1831 (Summary AID.), 1846 (Confirmation screen.), 1789 (Primary screen.)]
HEK293 [2] = assay: cells; type: functional, cell-based; conditions: Homo sapiens
[3] = molecular target: COUP transcription factor 2 (Homo sapiens, UniProt P24468); assay: Luminescence-based cell-based high throughput dose response assay to identify inhibitors of COUP-TFII (NR2F2).; type: functional;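 note: HEK293 cells transiently cotransfected with COUP-TFII expression vector and reporter; luciferase reporter luminescence driven by COUP-TFII from the pX2-168 reporter plasmid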
COUP transcription factor 2, sequence (P24468 whole entry): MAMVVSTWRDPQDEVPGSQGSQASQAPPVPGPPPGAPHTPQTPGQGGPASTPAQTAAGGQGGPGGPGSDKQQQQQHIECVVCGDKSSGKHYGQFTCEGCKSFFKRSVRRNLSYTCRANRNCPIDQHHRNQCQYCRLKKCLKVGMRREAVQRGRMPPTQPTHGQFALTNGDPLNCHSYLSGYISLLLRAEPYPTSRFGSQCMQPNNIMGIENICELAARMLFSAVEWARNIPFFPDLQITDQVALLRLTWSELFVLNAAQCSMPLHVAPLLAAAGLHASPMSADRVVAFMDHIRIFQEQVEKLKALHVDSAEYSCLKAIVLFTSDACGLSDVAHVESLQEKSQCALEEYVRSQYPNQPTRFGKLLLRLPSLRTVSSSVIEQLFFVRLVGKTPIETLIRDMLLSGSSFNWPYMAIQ

HEK293 [4] = assay: NOD2 signaling inhibitors in MDP-stimulated cells, cell-based, uHTS, luminescence (AID 2001); type: functional; conditions: Homo sapiens
HEK293 [5] = assay: cells; type: functional, cell-based; conditions: Homo sapiens; remark: listed apart in the source
INS1 = assay: INS-1E survival protection against cytokine death – cell-based, luminescence, retest, dose response (AID 449756); type: functional; conditions: Rattus norvegicus;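 note: cell death triggered by IL-1 beta plus TNF-alpha plus IFN-gamma mixture; protective hits raise ATP signal compared with cytokine alone wells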
[6] = molecular target: Nucleotide-binding oligomerization domain-containing protein 2 (Homo sapiens, UniProt Q9HC29); assay: inhibition of NOD2-driven NF-kB reporter – cell-based, luminescence, uHTS, HEK293 (AID 1566); type: functional
Nucleotide-binding oligomerization domain-containing protein 2, sequence (Q9HC29 whole entry, the tested form may be a part): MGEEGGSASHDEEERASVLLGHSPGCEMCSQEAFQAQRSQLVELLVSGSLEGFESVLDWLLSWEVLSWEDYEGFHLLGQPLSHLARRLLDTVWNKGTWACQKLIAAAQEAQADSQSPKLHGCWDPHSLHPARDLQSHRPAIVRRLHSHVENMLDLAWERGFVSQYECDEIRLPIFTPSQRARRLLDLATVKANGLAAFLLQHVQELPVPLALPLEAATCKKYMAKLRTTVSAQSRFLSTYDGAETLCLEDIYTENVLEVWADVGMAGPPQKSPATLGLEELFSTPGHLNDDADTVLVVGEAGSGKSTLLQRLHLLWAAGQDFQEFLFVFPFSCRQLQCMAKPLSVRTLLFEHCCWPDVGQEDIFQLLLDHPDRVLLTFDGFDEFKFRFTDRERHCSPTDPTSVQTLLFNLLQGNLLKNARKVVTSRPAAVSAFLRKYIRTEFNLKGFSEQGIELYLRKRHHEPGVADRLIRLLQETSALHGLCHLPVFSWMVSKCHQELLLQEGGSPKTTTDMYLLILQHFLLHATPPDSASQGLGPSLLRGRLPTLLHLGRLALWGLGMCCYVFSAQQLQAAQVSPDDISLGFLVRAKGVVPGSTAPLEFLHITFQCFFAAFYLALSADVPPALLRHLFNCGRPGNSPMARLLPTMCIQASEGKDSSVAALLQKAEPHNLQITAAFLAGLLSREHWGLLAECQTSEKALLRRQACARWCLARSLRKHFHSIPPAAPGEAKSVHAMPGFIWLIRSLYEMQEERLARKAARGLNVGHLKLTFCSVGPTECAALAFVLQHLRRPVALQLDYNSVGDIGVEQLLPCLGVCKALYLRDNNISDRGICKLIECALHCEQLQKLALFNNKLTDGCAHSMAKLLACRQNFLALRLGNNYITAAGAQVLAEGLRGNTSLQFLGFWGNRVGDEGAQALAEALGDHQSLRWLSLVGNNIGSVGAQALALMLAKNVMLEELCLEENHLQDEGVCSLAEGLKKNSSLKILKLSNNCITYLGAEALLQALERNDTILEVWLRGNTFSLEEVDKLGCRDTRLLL

HEK293 [7] = assay: cells; type: functional, cell-based; conditions: Homo sapiens; remark: listed apart in the source
HEK293 [8] = assay: inhibition of NOD1-driven NF-kB reporter – cell-based, luminescence, uHTS, primary screen (AID 1578); type: functional; conditions: Homo sapiens
[9] = molecular target: T1, Methionyl-tRNA synthetase, putative (Trypanosoma brucei brucei, UniProt Q38C91); type: functional, Trypanosoma brucei brucei strain 927/4 GUTat10.1
T1 sequence (Q38C91 whole entry): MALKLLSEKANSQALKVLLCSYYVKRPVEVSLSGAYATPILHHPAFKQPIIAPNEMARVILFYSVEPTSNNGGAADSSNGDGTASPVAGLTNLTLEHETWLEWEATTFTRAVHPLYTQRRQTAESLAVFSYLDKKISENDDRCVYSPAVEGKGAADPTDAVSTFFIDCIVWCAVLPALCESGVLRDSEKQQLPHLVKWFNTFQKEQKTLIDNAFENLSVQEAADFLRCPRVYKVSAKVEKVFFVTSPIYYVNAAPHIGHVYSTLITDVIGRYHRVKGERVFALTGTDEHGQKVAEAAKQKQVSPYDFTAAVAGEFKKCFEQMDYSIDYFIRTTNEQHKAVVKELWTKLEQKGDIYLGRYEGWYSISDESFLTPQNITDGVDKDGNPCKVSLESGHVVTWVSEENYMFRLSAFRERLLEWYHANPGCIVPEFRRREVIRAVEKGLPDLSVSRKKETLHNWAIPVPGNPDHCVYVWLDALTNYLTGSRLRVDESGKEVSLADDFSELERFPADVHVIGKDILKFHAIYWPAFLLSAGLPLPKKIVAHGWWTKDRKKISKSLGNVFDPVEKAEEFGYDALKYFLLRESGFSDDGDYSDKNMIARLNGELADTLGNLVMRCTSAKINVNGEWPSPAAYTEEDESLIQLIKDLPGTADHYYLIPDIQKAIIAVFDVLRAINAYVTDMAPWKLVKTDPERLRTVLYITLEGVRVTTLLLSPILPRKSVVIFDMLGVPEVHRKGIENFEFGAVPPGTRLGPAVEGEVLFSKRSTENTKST

[10] = Late stage counterscreen for inhibitors of Trypanosoma brucei methionyl tRNA synthetase (MetRS): Luminescence-based cell-based high throughput dose response assay to identify compounds that are cytotoxic to Jurkat human T lymphocyte cells.; type: functional
[11] = Counterscreen for inhibitors of Trypanosoma brucei methionyl tRNA synthetase (MetRS): Luminescence-based cell-based high throughput dose response assay to identify compounds that are cytotoxic to Jurkat human T lymphocyte cells.; type: functional
[12] = molecular target: T1, Methionyl-tRNA synthetase, putative; type: functional, Trypanosoma brucei brucei strain 927/4 GUTat10.1; remark: listed apart in the source
[13] = Luminescence-based cell-based high throughput dose response assay to identify activators of the DAF-12 from the parasite S. stercoralis (ssDAF-12).; type: functional
[14] = molecular target: T2, Oxysterols receptor LXR-beta (Homo sapiens, UniProt P55055); assay: LXR agonists, Gal4 luciferase reporter, dose response, counter-screen for ssDAF-12 agonist project, cell-based, luminescence, HEK293, S. stercoralis campaign (AID 720737); type: functional; conditions: read-out: IC50 (the source's name)
T2 sequence (P55055 whole entry): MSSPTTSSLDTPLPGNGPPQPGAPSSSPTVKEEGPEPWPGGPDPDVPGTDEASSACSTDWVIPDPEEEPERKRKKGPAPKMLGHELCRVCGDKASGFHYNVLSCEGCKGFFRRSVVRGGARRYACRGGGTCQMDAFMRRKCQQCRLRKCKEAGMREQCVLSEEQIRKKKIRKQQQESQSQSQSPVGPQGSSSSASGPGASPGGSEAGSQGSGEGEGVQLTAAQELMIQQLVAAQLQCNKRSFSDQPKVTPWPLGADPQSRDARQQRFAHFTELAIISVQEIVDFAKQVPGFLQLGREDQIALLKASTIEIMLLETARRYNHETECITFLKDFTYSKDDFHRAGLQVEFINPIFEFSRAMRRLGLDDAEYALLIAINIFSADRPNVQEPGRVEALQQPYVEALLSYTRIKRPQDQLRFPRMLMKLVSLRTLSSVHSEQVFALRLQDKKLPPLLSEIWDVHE

[15] = molecular target: RNA-editing ligase 1, mitochondrial (Trypanosoma brucei brucei, UniProt P86926); assay: inhibition of trypanosome RNA editing ligase – biochemical, fluorescence, Trypanosoma brucei, dose response (AID 1117295); type: functional
RNA-editing ligase 1, mitochondrial, sequence (P86926 whole entry): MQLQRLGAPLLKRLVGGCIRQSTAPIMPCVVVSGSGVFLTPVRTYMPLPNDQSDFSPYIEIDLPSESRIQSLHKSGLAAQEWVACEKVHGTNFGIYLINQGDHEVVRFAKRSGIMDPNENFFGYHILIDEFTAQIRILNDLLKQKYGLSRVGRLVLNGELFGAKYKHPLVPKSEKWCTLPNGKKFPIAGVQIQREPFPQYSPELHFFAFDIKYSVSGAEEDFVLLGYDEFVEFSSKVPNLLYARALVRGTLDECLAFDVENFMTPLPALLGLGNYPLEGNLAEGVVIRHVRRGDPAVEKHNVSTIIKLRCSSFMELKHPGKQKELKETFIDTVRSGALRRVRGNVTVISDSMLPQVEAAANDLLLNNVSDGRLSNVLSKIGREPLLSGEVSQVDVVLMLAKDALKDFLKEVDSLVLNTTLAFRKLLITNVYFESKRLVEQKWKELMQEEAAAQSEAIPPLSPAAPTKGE

[16] = Potency on glucagon-like peptide 1 release, dose-response in NCI-H716 cell line, half maximal inhibitory concentration (AID 1117344); type: functional, cell-based
[17] = glucagon-like peptide-1 release potency in STC-1, concentration-response, half-maximal inhibitory concentration in the STC-1 line (AID 1117345); type: functional, cell-based
[18] = BioA aminotransferase inhibition, coupled fluorescent readout – biochemical, coupled fluorescence displacement, 20-point, dry powder, dose response (AID 743357); type: functional
[19] = molecular target: NAD-dependent protein deacylase sirtuin-5, mitochondrial (Homo sapiens, UniProt Q9NXA8); assay: sirtuin-5 deacylation blockers, concentration series – biochemical, fluorescence imaging, cherry-pick, set 5, dose response (AID 720591);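 note: desuccinylation of succinyl peptide AMC substrate read as fluorescence after trypsin release; potency of inhibitors that lower fluorescence and may act on trypsin instead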
NAD-dependent protein deacylase sirtuin-5, mitochondrial, sequence (Q9NXA8 whole entry): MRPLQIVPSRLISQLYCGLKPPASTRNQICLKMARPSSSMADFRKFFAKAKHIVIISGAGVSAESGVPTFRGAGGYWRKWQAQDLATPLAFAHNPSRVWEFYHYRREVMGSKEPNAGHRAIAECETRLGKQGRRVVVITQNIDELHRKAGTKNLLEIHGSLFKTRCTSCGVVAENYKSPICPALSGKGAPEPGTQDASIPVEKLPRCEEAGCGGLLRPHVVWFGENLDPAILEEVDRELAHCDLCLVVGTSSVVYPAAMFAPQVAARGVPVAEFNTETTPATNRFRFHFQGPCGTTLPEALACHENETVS

[20] = molecular target: Mitogen-activated protein kinase 10 (Homo sapiens, UniProt P53779); assay: Dose response biochemical screening assay for inhibitors of c-Jun N-Terminal Kinase 3 (JNK3). [Related pubchem assays: 746 ]
Mitogen-activated protein kinase 10, sequence (P53779 whole entry): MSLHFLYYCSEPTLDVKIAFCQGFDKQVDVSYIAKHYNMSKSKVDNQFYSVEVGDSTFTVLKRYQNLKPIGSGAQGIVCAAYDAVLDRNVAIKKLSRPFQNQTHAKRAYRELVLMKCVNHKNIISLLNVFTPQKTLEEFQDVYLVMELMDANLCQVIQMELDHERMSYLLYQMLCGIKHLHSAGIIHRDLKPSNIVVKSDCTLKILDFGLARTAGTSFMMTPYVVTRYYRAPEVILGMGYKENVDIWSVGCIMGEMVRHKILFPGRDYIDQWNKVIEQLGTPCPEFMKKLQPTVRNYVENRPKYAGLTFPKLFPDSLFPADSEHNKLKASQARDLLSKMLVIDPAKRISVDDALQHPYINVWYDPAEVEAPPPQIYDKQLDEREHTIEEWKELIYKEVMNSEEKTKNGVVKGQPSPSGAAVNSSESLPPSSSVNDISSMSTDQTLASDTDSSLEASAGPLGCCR

Galanin receptor type 2, sequence (O43603 whole entry): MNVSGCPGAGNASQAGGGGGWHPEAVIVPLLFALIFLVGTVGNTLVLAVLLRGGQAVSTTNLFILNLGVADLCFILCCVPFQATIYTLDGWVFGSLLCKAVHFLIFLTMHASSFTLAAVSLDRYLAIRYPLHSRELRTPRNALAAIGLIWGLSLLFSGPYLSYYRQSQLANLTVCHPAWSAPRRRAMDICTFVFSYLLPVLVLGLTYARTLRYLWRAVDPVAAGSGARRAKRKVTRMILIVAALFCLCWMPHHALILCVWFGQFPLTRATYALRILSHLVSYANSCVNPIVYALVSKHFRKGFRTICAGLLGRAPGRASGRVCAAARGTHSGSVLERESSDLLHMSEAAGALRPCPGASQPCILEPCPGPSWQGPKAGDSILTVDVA

With `CC(=O)Nc1ccccc1OCC(=O)c1cc(C)n(Cc2cccs2)c1C` the IC50 (Galanin receptor type 2) was > 42 µM (not active), the IC50 [1] was 0.106 µM (active) and the IC50 (HEK293 [2]) was > 20 µM (inactive). For the same compound, the IC50 [3] was 0.807 µM (active), the IC50 (HEK293 [4]) was 2.05 µM (inactive) and the IC50 (HEK293 [5]) was < 0.312 µM (active). The AC50 (INS1) was 0.775 µM (active), the EC50 [6] was < 0.31 µM (inactive) and the IC50 (HEK293 [7]) was 13.4 µM (active). For the same compound, the EC50 (HEK293 [8]) was 0.566 µM (active).

In the case of `Clc1ccc(OCCSCc2nc3ccccc3[nH]2)cc1`, the IC50 [9] was 8.17 µM (active), the IC50 [10] was > 83.3 µM (inactive) and the IC50 [11] was 83.3 µM (inactive). For the same compound, the IC50 [12] was 5.85 µM (active).

For `Oc1[nH]ncc1/C=N/c1ccc(Oc2ccccc2)cc1`, the IC50 [13] was > 67.5 µM (inactive) and the EC50 [14] was > 67.5 µM (inactive).

In the case of `O=C(O)c1ccnc(C(=O)O)c1`, the IC50 [15] was > 96.6 µM (inactive).

With `O=C(Nc1cccc2c(=O)cc(-c3nnn[nH]3)oc12)c1ccc(OCCCCc2ccccc2)cc1` the IC50 [16] was > 40 µM (inactive) and the IC50 [17] was > 40 µM (inactive).

In the case of `N#Cc1ccc(N2CCN(C(=O)c3ccc4c(c3)OCO4)CC2)cc1`, the AC50 [18] was 16.8 µM (active).

With `O=C(O)CCNC(=O)c1ccc(NC(=O)C(c2ccccc2)c2ccccc2)cc1` the AC50 [19] was 10.6 µM (active).

In the case of `Cc1cccc(/N=C/c2c(O)[nH]c3ccccc23)n1`, the IC50 [20] was 41.7 µM (not active).

Source: ChEMBL document CHEMBL1201862, “PubChem BioAssay data set” (2004)
